Test system: Cochliobolus miyabeanus
Experiment: activity against brown spot of rice caused by Cochliobolus miyabeanus, protective application
Type: in vivo
Details: individual active compound, rice seedlings, assessed 6 days after inoculation
Description: The active compounds, separately or jointly, were prepared as a stock solution with 0.25% by weight of active compound in acetone or DMSO. 1% by weight of the emulsifier Uniperol® EL (wetting agent having emulsifying and dispersing action based on ethoxylated alkylphenols) was added to this solution, and the solution was diluted with water to the desired concentration.
Use example—activity against brown spot of rice caused by Cochliobolus miyabeanus, protective application
Leaves of potted rice seedlings of the cultivar “Tai-Nong 67” were sprayed to runoff point with an aqueous suspension of the concentration of active compound stated below. The next day, the plants were inoculated with an aqueous spore suspension of Cochliobolus miyabeanus. The test plants were then placed in climatized chambers at 22-24° C. and 95-99 % relative atmospheric humidity for six days. The extent of the development of the infection on the leaves was then determined visually.
Evaluation was carried out by determining the percentage of infected plants. These percentages were converted into efficacies.
The efficacy (E) is calculated as follows using Abbot's formula: E=(1−α/β)·100 α corresponds to the fungicidal infection of the treated plants in % and β corresponds to the fungicidal infection of the untreated (control) plants in %
An efficacy of 0 means that the infection level of the treated plants corresponds to that of the untreated control plants; an efficacy of 100 means that the treated plants are not infected.
The expected efficacies of mixtures of active compounds are determined using Colby's formula (R. S. Colby, Weeds, 15, 20-22, 1967) and compared with the observed efficacies.
Colby's formula: E=x+y−x·y/100 • E expected efficacy, expressed in % of the untreated control, when using the mixture of the active compounds A and B at the concentrations a and b • x efficacy, expressed in % of the untreated control, when using the active compound A at the concentration a • y efficacy, expressed in % of the untreated control, when using the active compound B at the concentration b

SMILES	Efficacy in % of the untreated control (1 ppm in the spray liquor) [%]	Efficacy in % of the untreated control (4 ppm in the spray liquor) [%]
CC1CCN(c2c(-c3c(F)cc(F)cc3F)c(Cl)nc3ncnn23)CC1 [I, 5-chloro-7-(4-methylpiperidin-1-yl)-6-(2,4,6-trifluorophenyl)-[1,2,4]triazolo[1,5-a]pyrimidine]	8	
CC1CCN(c2c(-c3c(F)cccc3Cl)c(Cl)nc3ncnn23)CC1 [comparative compound A]	20	
N#Cc1c[nH]cc1-c1cccc(Cl)c1Cl [II (fenpiclonil), 4-(2,3-dichlorophenyl)-1 H-pyrrole-3-carbonitrile]	0	0
C[C@H](Nc1c(-c2c(F)cc(F)cc2F)c(Cl)nc2ncnn12)C(F)(F)F [comparative compound B]	20	

Source: patent US20070027165A1, “Fungicidal mixtures for controlling rice pathogens” (BASF Aktiengesellschaft, priority 2003, published 2007)
